# Source: patent US20250290117A1, “MOLECULAR PHENOTYPIC ANTIMICROBIAL SUSCEPTIBILITY TESTING” (priority 2024, published 2025)
# Columns and labels:
# [1] = test system: pathogens of clinical samples; experiment: Molecular phenotypic antimicrobial susceptibility test of clinical samples, extraction DNA purification step prior to PCR (Table 6); assay type: cell-based
# Summary of the method: (§1)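 Specimens are first pre-incubated in medium, then diluted to 0.5 McFarland guided by optical density. They are exposed 12-16 h to antimicrobials at sensitivity breakpoints. Finally, either bead-based purification or lysis for direct PCR precedes semi-quantitative PCR.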
# E. coli = experiment: Molecular phenotypic antimicrobial susceptibility test, specimen with two detected pathogens incubated together without isolation; assay type: cell-based, Escherichia coli; conditions: E. coli in specimen with two detected pathogens (E. coli and M. morganii) incubated together; for Ct of Sensitive Breakpoint: Ct of controls (average) 15.93; for Molecular Antimicrobial Susceptibility Result: at sensitive breakpoint
# Summary of the method: (§2)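 Susceptibility read molecularly: growth means resistance, prevented growth sensitivity, versus antibiotic-free control wells. Co-detected pathogens stay together without isolation; after 4-6 h preincubation and PCR identification (threshold >10,000 cells/mL), inoculum adjusted to 0.5 McFarland and placed on thawed plates with each drug at its breakpoint concentration(s).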
# Escherichia coli = experiment: Molecular phenotypic antimicrobial susceptibility test (extraction or DNA purification prior to PCR); assay type: cell-based
# Summary of the method: as §1
# M. morganii = experiment: Molecular phenotypic antimicrobial susceptibility test, specimen with two detected pathogens incubated together without isolation; assay type: cell-based, Morganella morganii; conditions: M. morganii in specimen with two detected pathogens (E. coli and M. morganii) incubated together; for Ct of Sensitive Breakpoint: Ct of controls (average) 19.99; for Molecular Antimicrobial Susceptibility Result: at sensitive breakpoint
# Summary of the method: as §2
# [2] = E. coli, clinical sample of r10-r24
# [3] = E. coli, clinical sample of r10-r24, Ct Control Avg 18.112
# [4] = E. coli, clinical sample of r158-r172
# [5] = E. coli, clinical sample of r158-r172, Ct Control Avg 20.146
# [6] = K. aerogenes, clinical sample of r136-r150
# [7] = K. aerogenes, clinical sample of r136-r150, Ct Control Avg 19.994
# [8] = K. pneumoniae, clinical sample of r121-r135
# [9] = K. pneumoniae, clinical sample of r121-r135, Ct Control Avg 24.272
# [10] = M. morganii, clinical sample of r55-r69
# [11] = M. morganii, clinical sample of r55-r69, Ct Control Avg 28.86
# [12] = M. morganii, clinical sample of r70-r84
# [13] = M. morganii, clinical sample of r70-r84, Ct Control Avg 27.053
# [14] = P. mirabilis, clinical sample of r25-r39
# [15] = P. mirabilis, clinical sample of r25-r39, Ct Control Avg 26.064
# [16] = P. mirabilis, clinical sample of r40-r54
# [17] = P. mirabilis, clinical sample of r40-r54, Ct Control Avg 26.987
# [18] = E. coli isolate 1, Ct at control (average) 21.238
# [19] = E. coli isolate 1, at sensitive breakpoint
# [20] = E. coli isolate 2, Ct at control (average) 21.270
# [21] = E. coli isolate 2, at sensitive breakpoint
# [22] = E. coli isolate 3, Ct at control (average) 22.0995
# [23] = E. coli isolate 3, at sensitive breakpoint
# [24] = E. coli isolate 4, Ct at control (average) 17.5733
# [25] = E. coli isolate 4, at sensitive breakpoint
# [26] = E. coli isolate 5, Ct at control (average) 21.0933
# [27] = E. coli isolate 5, at sensitive breakpoint
Substance,"Molecular Antibiotic Susceptibility Result [1, 2]","Ct [1, 3]","Molecular Antibiotic Susceptibility Result [1, 4]","Ct [1, 5]","Molecular Antibiotic Susceptibility Result [1, 6]","Ct [1, 7]","Molecular Antibiotic Susceptibility Result [1, 8]","Ct [1, 9]","Molecular Antibiotic Susceptibility Result [1, 10]","Ct [1, 11]","Molecular Antibiotic Susceptibility Result [1, 12]","Ct [1, 13]","Molecular Antibiotic Susceptibility Result [1, 14]","Ct [1, 15]","Molecular Antibiotic Susceptibility Result [1, 16]","Ct [1, 17]",Ct of Sensitive Breakpoint (E. coli),Molecular Antimicrobial Susceptibility Result (E. coli),Ct at Sensitive Breakpoint (Escherichia coli; [18]),Molecular Antimicrobial Susceptibility Result (Escherichia coli; [19]),further results
Ampicillin/Sulbactam,Resistant,17.123,Sensitive (Antimicrobial wells with pathogen load detected below the control wells (typically >2 cycle thresholds later) may be reported as Sensitive),29.662,Sensitive (Antimicrobial wells with pathogen load detected below the control wells (typically >2 cycle thresholds later) may be reported as Sensitive),31.018,Resistant,23.602,Sensitive (Antimicrobial wells with pathogen load detected below the control wells (typically >2 cycle thresholds later) may be reported as Sensitive),37.093,Sensitive (Antimicrobial wells with pathogen load detected below the control wells (typically >2 cycle thresholds later) may be reported as Sensitive),Undet,Sensitive (Antimicrobial wells with pathogen load detected below the control wells (typically >2 cycle thresholds later) may be reported as Sensitive),33.809,Sensitive (Antimicrobial wells with pathogen load detected below the control wells (typically >2 cycle thresholds later) may be reported as Sensitive),36.062,14.58,Resistant,19.827,Resistant,Ct at Sensitive Breakpoint (Escherichia coli; [20]): 21.753; Molecular Antimicrobial Susceptibility Result (Escherichia coli; [21]): Resistant; Ct at Sensitive Breakpoint (Escherichia coli; [22]): 20.363; Molecular Antimicrobial Susceptibility Result (Escherichia coli; [23]): Resistant; Ct of Sensitive Breakpoint (M. morganii): 22.00; Molecular Antimicrobial Susceptibility Result (M. morganii): Sensitive (Antimicrobial wells with pathogen load detected below the control wells (typically >2 cycle thresholds later) may be reported as Sensitive)
Gentamicin,Sensitive (Antimicrobial wells with pathogen load detected below the control wells (typically >2 cycle thresholds later) may be reported as Sensitive),28.366,Sensitive (Antimicrobial wells with pathogen load detected below the control wells (typically >2 cycle thresholds later) may be reported as Sensitive),32.759,Sensitive (Antimicrobial wells with pathogen load detected below the control wells (typically >2 cycle thresholds later) may be reported as Sensitive),36.1,Sensitive (Antimicrobial wells with pathogen load detected below the control wells (typically >2 cycle thresholds later) may be reported as Sensitive),44.195,Sensitive (Antimicrobial wells with pathogen load detected below the control wells (typically >2 cycle thresholds later) may be reported as Sensitive),Undet,Sensitive (Antimicrobial wells with pathogen load detected below the control wells (typically >2 cycle thresholds later) may be reported as Sensitive),Undet,Sensitive (Antimicrobial wells with pathogen load detected below the control wells (typically >2 cycle thresholds later) may be reported as Sensitive),28.953,Sensitive (Antimicrobial wells with pathogen load detected below the control wells (typically >2 cycle thresholds later) may be reported as Sensitive),37.234,17.37,Resistant,22.585,Resistant,"Molecular Antibiotic Susceptibility Result ([1]; S. aureus, clinical sample of r85-r92): Sensitive (Antimicrobial wells with pathogen load detected below the control wells (typically >2 cycle thresholds later) may be reported as Sensitive); Ct ([1]; S. aureus, clinical sample of r85-r92, Ct Control Avg 24.32): Undet; Ct at Sensitive Breakpoint (Escherichia coli; [20]): 24.165; Molecular Antimicrobial Susceptibility Result (Escherichia coli; [21]): Sensitive (Antimicrobial wells with pathogen load detected below the control wells (typically >2 cycle thresholds later) may be reported as Sensitive); Ct at Sensitive Breakpoint (Escherichia coli; [22]): 25.112; Molecular Antimicrobial Susceptibility Result (Escherichia coli; [23]): Sensitive (Antimicrobial wells with pathogen load detected below the control wells (typically >2 cycle thresholds later) may be reported as Sensitive); Ct at Sensitive Breakpoint (Escherichia coli; [24]): 22.64; Molecular Antimicrobial Susceptibility Result (Escherichia coli; [25]): Sensitive (Antimicrobial wells with pathogen load detected below the control wells (typically >2 cycle thresholds later) may be reported as Sensitive); Ct at Sensitive Breakpoint (Escherichia coli; [26]): 25.77; Molecular Antimicrobial Susceptibility Result (Escherichia coli; [27]): Sensitive (Antimicrobial wells with pathogen load detected below the control wells (typically >2 cycle thresholds later) may be reported as Sensitive); Ct of Sensitive Breakpoint (M. morganii): 30.09; Molecular Antimicrobial Susceptibility Result (M. morganii): Sensitive (Antimicrobial wells with pathogen load detected below the control wells (typically >2 cycle thresholds later) may be reported as Sensitive)"
Piperacillin/Tazobactam,Sensitive (Antimicrobial wells with pathogen load detected below the control wells (typically >2 cycle thresholds later) may be reported as Sensitive),26.499,Sensitive (Antimicrobial wells with pathogen load detected below the control wells (typically >2 cycle thresholds later) may be reported as Sensitive),30.693,Sensitive (Antimicrobial wells with pathogen load detected below the control wells (typically >2 cycle thresholds later) may be reported as Sensitive),32.586,Sensitive (Antimicrobial wells with pathogen load detected below the control wells (typically >2 cycle thresholds later) may be reported as Sensitive),34.274,Sensitive (Antimicrobial wells with pathogen load detected below the control wells (typically >2 cycle thresholds later) may be reported as Sensitive),36.138,Sensitive (Antimicrobial wells with pathogen load detected below the control wells (typically >2 cycle thresholds later) may be reported as Sensitive),Undet,Sensitive (Antimicrobial wells with pathogen load detected below the control wells (typically >2 cycle thresholds later) may be reported as Sensitive),28.92,Sensitive (Antimicrobial wells with pathogen load detected below the control wells (typically >2 cycle thresholds later) may be reported as Sensitive),33.895,27.51,Sensitive (Antimicrobial wells with pathogen load detected below the control wells (typically >2 cycle thresholds later) may be reported as Sensitive),25.572,Sensitive (Antimicrobial wells with pathogen load detected below the control wells (typically >2 cycle thresholds later) may be reported as Sensitive),Ct at Sensitive Breakpoint (Escherichia coli; [20]): 22.685; Molecular Antimicrobial Susceptibility Result (Escherichia coli; [21]): Sensitive (Antimicrobial wells with pathogen load detected below the control wells (typically >2 cycle thresholds later) may be reported as Sensitive); Ct at Sensitive Breakpoint (Escherichia coli; [22]): 20.541; Molecular Antimicrobial Susceptibility Result (Escherichia coli; [23]): Sensitive (Antimicrobial wells with pathogen load detected below the control wells (typically >2 cycle thresholds later) may be reported as Sensitive); Ct at Sensitive Breakpoint (Escherichia coli; [24]): 26.05; Molecular Antimicrobial Susceptibility Result (Escherichia coli; [25]): Sensitive (Antimicrobial wells with pathogen load detected below the control wells (typically >2 cycle thresholds later) may be reported as Sensitive); Ct at Sensitive Breakpoint (Escherichia coli; [26]): 25.44; Molecular Antimicrobial Susceptibility Result (Escherichia coli; [27]): Sensitive (Antimicrobial wells with pathogen load detected below the control wells (typically >2 cycle thresholds later) may be reported as Sensitive); Ct of Sensitive Breakpoint (M. morganii): 29.64; Molecular Antimicrobial Susceptibility Result (M. morganii): Sensitive (Antimicrobial wells with pathogen load detected below the control wells (typically >2 cycle thresholds later) may be reported as Sensitive)
